One experiment concerns hindpaw allodynia. Nature of the experiment: Experimental migraine model, inflammatory soup on dura, hindpaw allodynia.
The target in a further experiment is 5-HT1B (Rattus norvegicus (Rat), UniProt P28564). Description: 5-HT1B binding assay (agonist radioligand), rat cerebral cortex. The protocol:
5-HT1D binding assays (agonist radioligand)were performed using bovine caudate membranes according to the methods of Heuring and Peroutka (J. Neurosci 1987, 7: 894-903). 5-HT1B (rat cerebral cortex) binding assays (agonist radioligand) were performed according to the method of Hoyer et. al. (Eur. J. Pharmacol. 1995, 118: 1-12). For the purpose of result analysis, the specific ligand binding to the receptors is defined as the difference between the total binding and the nonspecific binding as determined in the presence of an excess of unlabelled ligand. The results are expressed as a percent of control specific binding obtained in the presence of the test compounds. IC50 values (concentration causing a half-maximal inhibition of control specific binding) and Hill coefficients (nH) were determined by non-linear regression analysis of the competition curves using Hill equation curve fitting and the inhibition constants (Ki) were calculated from the Cheng Prusoff equation (Ki=IC50/(1+(L/KD)), where L=concentration of radioligand in the assay, and KD=affinity of the radioligand for the receptor).

Experiment [1] concerns the target human neuronal constitutive NOS (nNOS) (Homo sapiens (Human), UniProt P29475). Nature of the experiment: Human nNOS enzyme assay, radiometric [3H]L-arginine to [3H]L-citrulline.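 As to all read-outs here: recombinant human nNOS expressed in baculovirus-infected Sf9 cells, enzyme activity measured radiometrically as turnover of [3H]L-arginine into [3H]L-citrulline.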 The note with it: for e/n: ratio eNOSh/nNOSh.
Description: (§2) In a radiometric method, NO synthase activity was determined by measuring the conversion of [^3H]L-arginine to [^3H]L-citrulline.
(§3) The total volume of the reaction mixture was 150 μL in every well. […] The reaction was stopped by adding 20 μL of ice-cold buffer containing 100 mM HEPES, 3 mM EGTA, 3 mM EDTA, pH=5.5. [^3H]L-citrulline was separated by DOWEX (ion-exchange resin DOWEX 50 W X 8-400, SIGMA) and the DOWEX was removed by spinning at 12,000 g for 10 min in the centrifuge. […] All assays were performed at least in duplicate. Standard deviations were 10% or less.
The target of experiment [2] is human endothelial constitutive NOS (eNOS) (Homo sapiens (Human), UniProt P29474). Nature of the experiment: Human eNOS enzyme assay, radiometric.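 Also: recombinant human eNOS expressed in baculovirus-infected Sf9 cells, activity read as [3H]L-arginine turned into [3H]L-citrulline, the product isolated on ion-exchange resin.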
Description: as §2, §3
Experiment [3] has as its target human inducible NOS (iNOS) (Homo sapiens (Human), UniProt P35228). Description: Human iNOS enzyme assay, radiometric. It counts as biochemical. An excerpt: Standard deviations were 10% or less.
Experiment [4] deals with L5/L6 spinal nerve ligation. Nature of the experiment: Chung spinal nerve ligation (SNL) model of neuropathic pain. The note with it: rats; for tactile hyperthesia: L5/L6 spinal nerve ligation, FIGS. 20 and 22; for thermal hyperalgesia: one standard dose (10 mg/kg) injected IP, FIG. 19, 21. It counts as in vivo. Here is the method: (a) Chung Model of Injury-induced Neuropathic-like Pain: The experimental designs for the Chung Spinal Nerve Ligation SNL Model assay for neuropathic pain are depicted in FIG. 18. Nerve ligation injury was performed according to the method described by Kim and Chung (Kim and Chung, Pain 50:355-363, 1992). This technique produces signs of neuropathic dysesthesias, including tactile allodynia, thermal hyperalgesia, and guarding of the affected paw. Rats were anesthetized with halothane and the vertebrae over the L4 to S2 region were exposed. The L5 and L6 spinal nerves were exposed, carefully isolated, and tightly ligated with 4-0 silk suture distal to the DRG. After ensuring homeostatic stability, the wounds were sutured, and the animals allowed to recover in individual cages. Sham-operated rats were prepared in an identical fashion except that the L5/L6 spinal nerves were not ligated. […] After a period of recovery following the surgical intervention, rats show enhanced sensitivity to painful and normally non-painful stimuli.

The target in the next experiment is bovine eNOS (Bos taurus (Bovine), UniProt P29473). Nature of the experiment: Bovine eNOS hemoglobin capture assay. The experiment is classed as biochemical. The note with it: Table 2a; hemoglobin capture assay; read-out: Bovine eNOS. An excerpt: (§1) The NOS isoforms used in this example were recombinant enzymes expressed in E. coli. Rat nNOS was expressed and purified as described previously (Roman et al., Proc. Natl. Acad. Sci. USA 92:8428-8432, 1995). The bovine eNOS isoform was isolated as reported (Martasek et al., Biochem. Biophys. Res. Commun. 219:259-365, 1996) and murine macrophage iNOS was expressed and isolated according to the procedure of Hevel et al. (J. Biol. Chem. 266:22789-22791, 1991). IC50 values and percent inhibition of NOS by the compounds of the invention were determined under initial velocity measurement conditions with the hemoglobin capture assay as previously described (Hevel and Marletta, Methods Enzymol. 133:250-258, 1994). In this assay, nitric oxide reacts with oxyhemoglobin to yield methemoglobin, which was detected at 401 nm (e=19,700 M^−1 cm^−1) on a Perkin-Elmer Lamda 10 UV/vis spectrophotometer. The assays were performed using varying test compound concentrations. Assay mixtures for nNOS or eNOS contained […], 1.6 mM CaCl2, 11.6 mg/mL calmodulin, […], 6.5 mM BH4 and […] in 100 mM Hepes (pH 7.5). Assay mixtures for iNOS contained 10 mM of L-arginine, […], 6.5 mM BH4 and […] in 100 mM Hepes (pH 7.5). All assays were conducted in a final volume of 600 μL and were initiated with enzyme.

The target of a further experiment is Rat nNOS (Rattus norvegicus (Rat), UniProt P29476). Description: Rat nNOS hemoglobin capture assay. The experiment is classed as biochemical. The settings on record: Table 2a.
Excerpt: as §1

[5] abbreviates: read-out: nNOSh, Table I, human NOS, dihydrochloride or monohydrochloride salts.
[6] abbreviates: read-out: eNOSh, Table I, human NOS, dihydrochloride or monohydrochloride salts.
The mark [7] stands for this setting: Table I, human NOS, dihydrochloride or monohydrochloride salts, read-out: iNOSh.

Where two headings read alike, the source gives them in different places.

Sequence of 5-HT1B (P28564 whole entry): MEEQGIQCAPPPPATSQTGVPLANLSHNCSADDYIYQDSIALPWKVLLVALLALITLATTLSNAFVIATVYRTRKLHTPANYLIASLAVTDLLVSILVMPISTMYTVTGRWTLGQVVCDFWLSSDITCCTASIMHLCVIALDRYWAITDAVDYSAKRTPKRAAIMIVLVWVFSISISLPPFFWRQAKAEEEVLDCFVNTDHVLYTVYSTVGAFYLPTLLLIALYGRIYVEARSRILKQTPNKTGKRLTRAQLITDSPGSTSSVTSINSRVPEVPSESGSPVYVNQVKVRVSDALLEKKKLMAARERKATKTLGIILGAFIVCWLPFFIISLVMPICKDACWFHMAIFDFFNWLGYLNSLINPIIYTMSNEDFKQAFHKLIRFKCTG

Take `CNS(=O)(=O)Cc1ccc2[nH]cc(CCN(C)C)c2c1` [Sumatriptan, reference compound]: the “development of hindpaw allodynia” value with hindpaw allodynia (1 mg/kg s.c. 5 minutes prior to soup, two hours after IS) was “prevention of the development of hindpaw allodynia”.

Turning to `CN1CCC(c2c[nH]c3ccc(NC(=N)c4ccco4)cc23)C1` (stereo not drawn) [Compound 111, N-(3-(1-methylpyrrolidin-3-yl)-1H-indol-5-yl)furan-2-carboximidamide], the values for the IC50 (at 5-HT1B; in experiment [1] (setting [5]); in experiment [2] (setting [6])) were 1.1 µM, 1.24 µM and 33.8 µM, respectively.

For `CN1CC=C(c2c[nH]c3ccc(NC(=N)c4ccco4)cc23)CC1` [Compound 46, N-(3-(1-methyl-1,2,3,6-tetrahydropyridin-4-yl)-1H-indol-5-yl)furan-2-carboximidamide], the e/n in experiment [1] (Table I) turned out to be 31. Besides, the results for the IC50 in experiment [1] (setting [5]), in experiment [2] (setting [6]) and in experiment [3] (setting [7]) were 1.78 µM, 54 µM and 58 µM, respectively.

Regarding `CN1CCC(c2c[nH]c3ccc(NC(=N)c4cccs4)cc23)CC1` [Compound 43, N-(3-(1-methylpiperidin-4-yl)-1H-indol-5-yl)thiophene-2-carboximidamide], the e/n in experiment [1] (Table I) is reported as 17. Also, the IC50 in experiment [1] (setting [5]) worked out at 1.88 µM; in experiment [2] (setting [6]), 32.6 µM; in experiment [3] (setting [7]) it was 58 µM.

Turning to `N=C(Nc1ccc2ccn(CCN3CCCCC3)c2c1)c1cccs1` [Compound 37], the IC50 in experiment [1] (read-out: Human nNOS, Table 2b) came to 0.49 µM; in experiment [2] (read-out: Human eNOS, Table 2b), 3.8 µM; in experiment [3] (Table 2b, read-out: Human iNOS), 21 µM.

Turning to `CN1CCCC1CCn1ccc2ccc(NC(=N)c3cccs3)cc21` (stereo not drawn) [32(+)], the tactile hyperthesia result in experiment [4] was “reversal of tactile hyperthesia”. Besides, the thermal hyperalgesia entry in experiment [4] is reported as “clear antihyperalgesic effect”. The IC50 is 0.32 µM in experiment [1] (read-out: Human nNOS, Table 2b); 16 µM in experiment [2] (read-out: Human eNOS, Table 2b); 72.8 µM in experiment [3] (Table 2b, read-out: Human iNOS).

`CN1CC=C(c2c[nH]c3ccc(CNC(=N)c4cccs4)cc23)CC1` [Compound 51, N-((3-(1-methyl-1,2,3,6-tetrahydropyridin-4-yl)-1H-indol-5-yl)methyl)thiophene-2-carboximidamide]: in experiment [1] (Table I), the e/n was determined as 42. Further, the IC50 worked out at 1.19 µM in experiment [1] (setting [5]), 49.7 µM in experiment [2] (setting [6]) and 85 µM in experiment [3] (setting [7]).

Turning to `N=C(Nc1ccc2[nH]ccc2c1)c1cccs1` [Compound 5], the values for the IC50 on bovine eNOS and on Rat nNOS were 643 µM and 57.6 µM, respectively.

On to `CN1CCC(c2c[nH]c3ccc(NC(=N)c4ccco4)cc23)CC1` [Compound 47, N-(3-(1-methylpiperidin-4-yl)-1H-indol-5-yl)furan-2-carboximidamide], for which the IC50 in experiment [1] (setting [5]) turned out to be 2.24 µM; in experiment [2] (setting [6]), 97.4 µM; in experiment [3] (setting [7]), 55 µM.

`CN1C2C=C(c3c[nH]c4ccc(NC(=N)c5cccs5)cc34)CC1CC2` (stereo not drawn) [Compound 90, N-(3-(8-methyl-8-azabicyclo[3.2.1]oct-3-en-3-yl)-1H-indol-5-yl)thiophene-2-carboximidamide]: the e/n in experiment [1] (Table I) is listed as 20.3. Further, the figures for the IC50 in experiment [1] (setting [5]) and in experiment [2] (setting [6]) were 3.35 µM and 67.9 µM, respectively.

Consider `N=C(Nc1ccc2[nH]cc(C3CCNCC3)c2c1)c1cccs1` [Compound 88, N-(3-(piperidin-4-yl)-1H-indol-5-yl)thiophene-2-carboximidamide], for which the e/n in experiment [1] (Table I) was 8.5. The IC50 is 9.23 µM in experiment [1] (setting [5]) and 78.1 µM in experiment [2] (setting [6]).

Consider `CN1CCC[C@@H]1Cc1c[nH]c2ccc(NC(=N)c3cccs3)cc12` [Compound 97, (R)-N-(3-((1-Methylpyrrolidin-2-yl)methyl)-1H-indol-5-yl)thiophene-2-carboximidamide], for which the IC50 at 5-HT1B amounted to 0.31 µM; in experiment [1] (setting [5]), 0.84 µM; in experiment [2] (setting [6]), 34.5 µM. The e/n in experiment [1] (Table I) is recorded as 41. Besides, the “development of hindpaw allodynia” value in the experiment with hindpaw allodynia (6 mg/kg i.v. 10 minutes prior to IS) was “prevents the development of hindpaw allodynia”.

As to `CN1CCC[C@H]1Cc1c[nH]c2ccc(NC(=N)c3ccco3)cc12` [Compound 107, (S)-N-(3-((1-methylpyrrolidin-2-yl)methyl)-1H-indol-5-yl)furan-2-carboximidamide], in experiment [1] (Table I), the e/n came to 9.9. The IC50 in experiment [1] (setting [5]) stood at 2.52 µM; in experiment [2] (setting [6]), 24.9 µM.

For the compound `CN1CCCC1CCn1ccc2ccc(NC(=N)c3cccs3)cc21` (stereo not drawn) [32(−)], the tactile hyperthesia entry in experiment [4] is reported as “reversal of tactile hyperthesia”. Besides, the thermal hyperalgesia result in experiment [4] is “clear antihyperalgesic effect”. Moreover, the IC50 in experiment [1] (read-out: Human nNOS, Table 2b) is 0.2 µM; in experiment [2] (read-out: Human eNOS, Table 2b) it was 24 µM; in experiment [3] (Table 2b, read-out: Human iNOS) it was 72.6 µM.

`CN(C)CCCc1c[nH]c2ccc(NC(=N)c3cccs3)cc12` [Compound 56, N-(3-(3-(dimethylamino)propyl)-1H-indol-5-yl)thiophene-2-carboximidamide]: the IC50 worked out at 0.41 µM in experiment [1] (setting [5]), 15.1 µM in experiment [2] (setting [6]) and 5.6 µM in experiment [3] (setting [7]).

On to `CN1CC=C(c2c[nH]c3ccc(NC(=N)c4cccs4)cc23)C(F)C1` (stereo not drawn) [Compound 134, N-(3-(3-fluoro-1-methyl-1,2,3,6-tetrahydropyridin-4-yl)-1H-indol-5-yl)thiophene-2-carboximidamide], for which, in experiment [1] (Table I), the e/n is recorded as 51.4. Moreover, the IC50 in experiment [1] (setting [5]) is 2.78 µM; in experiment [2] (setting [6]), 143 µM.

Take `N=C(Nc1ccc2[nH]cc(-c3ccncc3)c2c1)c1cccs1` [Compound 73, N-(3-(pyridin-4-yl)-1H-indol-5-yl)thiophene-2-carboximidamide]: in experiment [1] (Table I), the e/n stood at 19.7. Further, the IC50 in experiment [1] (setting [5]) amounted to 2.2 µM; in experiment [2] (setting [6]), 43.4 µM.

With `CN1CCC[C@H]1Cc1c[nH]c2ccc(NC(=N)c3cccs3)cc12` [Compound 105, (S)-N-(3-((1-methylpyrrolidin-2-yl)methyl)-1H-indol-5-yl)thiophene-2-carboximidamide], the IC50 at 5-HT1B was found to be 0.29 µM; in experiment [1] (setting [5]), 0.82 µM; in experiment [2] (setting [6]) it was 23 µM. Moreover, the e/n in experiment [1] (Table I) came out at 29.

Take `N=C(Nc1ccc2ccn(CCCCn3ccnc3)c2c1)c1cccs1` [Compound 167]: the e/n in experiment [1] (Table II) was determined as 3.74. The IC50 in experiment [1] (read-out: nNOSh, Table II, human NOS, dihydrochloride or monohydrochloride salts) was 1.22 µM; in experiment [2] (read-out: eNOSh, Table II, human NOS, dihydrochloride or monohydrochloride salts) it was 4.56 µM.

Take `CN1CCC(c2c[nH]c3ccc(NC(=N)c4cccs4)cc23)C1` (stereo not drawn) [Compound 110, N-(3-(1-methylpyrrolidin-3-yl)-1H-indol-5-yl)thiophene-2-carboximidamide]: the IC50 on 5-HT1B is 0.49 µM; in experiment [1] (setting [5]), 0.43 µM; in experiment [2] (setting [6]), 39 µM. Besides, the e/n in experiment [1] (Table I) is 90.

Regarding `N=C(Nc1ccc2[nH]cc(CCCN3CCOCC3)c2c1)c1cccs1` [Compound 181, N-(3-(3-morpholinopropyl)-1H-indol-5-yl)thiophene-2-carboximidamide], in experiment [1] (Table I), the e/n was 9.9. Also, the IC50 in experiment [1] (setting [5]) is 2 µM; in experiment [2] (setting [6]), 31 µM; in experiment [3] (setting [7]), 9.9 µM.

For the origin of these results see US8586620B2, “Substituted indole compounds having NOS inhibitory activity” (NeurAxon, Inc., priority 2005, dated 2013).
